Data published in article PMC9560169, “The novel visual cycle inhibitor (±)-RPE65-61 protects retinal photoreceptors from light-induced degeneration” (PLoS ONE, 2022).

Target: T1, RPE65 (Gallus gallus, UniProt Q9YGX2)
T1 construct: purified chicken recombinant RPE65
T1 sequence (Q9YGX2 1-533): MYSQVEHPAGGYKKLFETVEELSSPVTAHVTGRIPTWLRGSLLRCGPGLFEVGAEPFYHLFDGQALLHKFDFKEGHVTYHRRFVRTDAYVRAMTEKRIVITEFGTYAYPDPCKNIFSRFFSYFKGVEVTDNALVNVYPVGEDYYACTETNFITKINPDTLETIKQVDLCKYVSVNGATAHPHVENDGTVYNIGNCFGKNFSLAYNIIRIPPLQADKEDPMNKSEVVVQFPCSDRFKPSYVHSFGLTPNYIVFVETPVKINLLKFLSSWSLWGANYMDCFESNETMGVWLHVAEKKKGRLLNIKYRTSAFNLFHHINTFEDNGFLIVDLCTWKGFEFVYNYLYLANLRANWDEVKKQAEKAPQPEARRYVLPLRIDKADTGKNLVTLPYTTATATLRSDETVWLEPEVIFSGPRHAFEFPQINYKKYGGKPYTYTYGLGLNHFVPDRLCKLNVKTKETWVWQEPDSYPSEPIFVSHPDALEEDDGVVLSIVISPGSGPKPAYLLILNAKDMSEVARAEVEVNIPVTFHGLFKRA
Assay: liposome-based isomerohydrolase assay with all-trans-retinyl palmitate, HPLC of 11-cis-retinol, Lineweaver-Burk
Assay type: biochemical

## N=S(=O)(CCN)c1cccc(OCC2CCCCC2)c1 (racemic) [(±)-9, (±)-(2-aminoethyl)(3-(cyclohexylmethoxy)phenyl)(imino)-ƛ^6-sulfanone]
  Ki: 119 ± 11 nM
